US7649002B2, “(3,5-dimethylpiperidin-1yl)(4-phenylpyrrolidin-3-yl)methanone derivatives as MCR4 agonists” (Pfizer Inc, priority 2004, dated 2010)
Where two headings read alike, the source gives them in different places.

Molecular target: T1, human MCR4 receptor (Homo sapiens, UniProt P32245)
T1 construct: expressed in transfected cells
Experiment: MCR4 improved functional assay (Protocol E): CHO-K1-MC4R-CRE-β-lactamase reporter
Type: cell-based
Excerpt: (ii) MCR5 Standard Functional Assay Methodology and MCR4 Improved Functional Assay Methodology [Assay Protocol D and E Respectively] […] These cell lines were engineered using protocols akin to those outlined by Zaccolo et al (Zaccolo, M., (2000) Nature, 2(1); 25-29). Compound-induced activation of the MCR5 or MCR4 receptors in these two cell lines stimulated the production, and intracellular accumulation, of the enzyme β-lactamase. The quantity of β-lactamase enzyme produced was directly proportional to the degree to which the test compound activated the MCR5 or MCR4 receptors present on these cells and was quantified using the P-lactamase gene reporter analysis kit that is commercially available from Invitrogen Life Technologies. An in-depth description of this technology and assay protocols are available from the Invitrogen web site (www.invitrogen.com). The protocol listed below provides a summary of that assay methodology. The quantity of β-lactamase enzyme produced by compound-induced activation of the MCR5 or MCR4 receptors expressed in these cell lines was quantified using a LjI Biosystems Analyst™ HT 96.384 plate reader set to excite at a wave length of 405 nm, and measure the energy emitted at wave lengths of 450 nm and 530 nm. Cellular responses were quantified by dividing the measured energy emitted at a wavelength of 450 nm by the measured energy emitted at a wavelength of 530 nm. […] CCF4-AM was dissolved in 100% DMSO to give a final solution concentration of 1 mM. This solution was termed Solution A. Probenecid was dissolved in 200 mM NaOH to give a final solution concentration of 200 mM. This solution was termed Solution D. Composition of the β-lactamase assay dye solution: for 1072 μL of assay dye solution combine: 12 μL of Solution A, 60 μL of Solution B, 925 μL of Solution C and 75 μL of Solution D. […] Cells were grown in T225 vent cap flasks containing 50 ml of growth medium and maintained in a cell incubator at a temperature of 37° C. and in an environment containing 5% CO2. The composition of the growth medium for the CHO-K1-MC5R-CRE-β-lactamase was 90% v/v DMEM supplemented with; Glutamax-1, 25 mM HEPES, 10% v/v foetal calf serum (FCS), 1 mM sodium pyruvate, 0.1 mM non essential amino acids and 800 μg/ml genetic in. For the CHO-K1-MC4R-CRE-β-lactamase this growth media was further supplemented with […] Zeocin. Cells were harvested when they reached 80-90% confluency by first removing the existing growth medium and then washing with PBS that had been pre-warmed to a temperature of 37° C. This PBS was then removed and 5 ml of cell dissociation fluid added to the flask. These cells were incubated for 5 minutes in a cell incubator set at a temperature of 37° C. and in an environment containing 5% CO2 to detach the cells. When cells were detached, pre-warmed growth media was added, the cells re-suspended and mixed gently to achieve a single cell suspension by pipetting. This cell suspension was then used for experimentation, or transferred into a new T225 flask to perpetuate the cell culture. […] For each assay the cell plates were then retuned to a cell incubator maintained at a temperature of 37° C. and in an environment containing 5% CO2 overnight before performing the assay on the second assay day. […] For the MCR4 improved functional assay methodology the solution of cyclohexamide was not added. Subsequently, 10 μL of the test compound solution was transferred to the assay plate. The assay plate was then transferred to a cell incubator, set at 37° C. and in an environment containing 5% CO2, and left for 4 hours for the MCR4 improved assay methodology, or 5 hours for the MCR5 standard assay methodology. After this incubation period the plate was removed from the incubator, 10 μL of the […] assay dye solution was added to each well and then the plate returned to the cell incubator.

[1] = Protocols C or E, read-out: functional potency at the MC4 receptor (EC50)

T1 sequence (P32245 whole entry): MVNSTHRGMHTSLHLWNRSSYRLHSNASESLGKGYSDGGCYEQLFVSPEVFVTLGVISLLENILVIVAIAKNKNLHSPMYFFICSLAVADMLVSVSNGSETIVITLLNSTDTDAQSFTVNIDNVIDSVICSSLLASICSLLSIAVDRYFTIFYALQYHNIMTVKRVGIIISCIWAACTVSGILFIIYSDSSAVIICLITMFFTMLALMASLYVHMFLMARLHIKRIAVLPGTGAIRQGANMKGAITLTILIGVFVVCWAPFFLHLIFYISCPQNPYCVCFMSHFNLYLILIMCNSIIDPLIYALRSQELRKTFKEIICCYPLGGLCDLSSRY

| SMILES | EC50 [1] [nM] | EC50 (Table 6, read-out: MCR4 EC50) [nM] | EC50 (MCR4 EC50 (nM), Table 6) [nM] | EC50 (functional potency at the MC4 receptor (EC50), Protocols C or E) [nM] |
| --- | --- | --- | --- | --- |
| C[C@@H]1CN(C(=O)[C@@H]2CN(C(C)(C)C)C[C@H]2c2ccc(F)cc2F)C[C@H](C)[C@@]1(O)c1ccccc1 [Example 1, (3R,4R,5S)-1-{[(3S,4R)-1-tert-Butyl-4-(24-difluorophenyl)pyrrolidin-3-yl]carbonyl}-3,5-dimethyl-4-phenylpiperidin-4-ol] | < 10 |  |  |  |
| CC(C)N1C[C@@H](C(=O)N2C[C@@H](C)[C@](O)(c3ccccc3)[C@@H](C)C2)[C@H](c2ccc(F)cc2F)C1.Cl [Example 6, (3R,4R,5S)-1-{[(3S,4R)-4-(2,4-Difluorophenyl)-1-isopropylpyrrolidin-3-yl]carbonyl}-3,5-dimethyl-4-phenylpiperidin-4-ol hydrochloride] |  |  | 19 | < 50 |
| C[C@@H]1CN(C(=O)[C@@H]2CN(C(C)(C)C)C[C@H]2c2ccc(F)cc2F)C[C@H](C)[C@@]1(O)c1ccccc1.Cl [Example 5, (3R,4R,5S)-1-{[(3S,4R)-1-tert-Butyl-4-(2,4-difluorophenyl)pyrrolidin-3-yl]carbonyl}-3,5-dimethyl-4-phenylpiperidin-4-ol hydrochloride] | < 10 | 9.6 |  |  |
| C[C@@H]1CN(C(=O)[C@@H]2CNC[C@H]2c2ccc(F)cc2F)C[C@H](C)[C@@]1(O)c1ccc(F)cc1.Cl [Example 12, (3R,4R,5S)-1-{[(3S,4R)-4-(2,4-difluorophenyl)pyrrolidin-3-yl]carbonyl}-4-(4-fluorophenyl)-3,5-dimethylpiperidin-4-ol hydrochloride] | < 150 | 75 |  |  |

Second part, led by results:

| EC50 [1] [nM] | EC50 (Table 6, read-out: MCR4 EC50) [nM] | SMILES | EC50 (MCR4 EC50 (nM), Table 6) [nM] | EC50 (functional potency at the MC4 receptor (EC50), Protocols C or E) [nM] |
| --- | --- | --- | --- | --- |
| < 10 | 1.5 | C[C@@H]1CN(C(=O)[C@@H]2CN(c3cccnn3)C[C@H]2c2ccc(F)cc2F)C[C@H](C)[C@@]1(O)c1ccccc1.Cl [Example 35, (3R,4R,5S)-1-{[(3S,4R)-4-(2,4-difluorophenyl)-1-pyridazin-3-ylpyrrolidin-3-yl]carbonyl}-3,5-dimethyl-4-phenylpiperidin-4-ol hydrochloride] |  |  |
| < 50 | 27 | C[C@@H]1CN(C(=O)[C@@H]2CN(C(C)(C)C)C[C@H]2c2ccc(F)cc2F)C[C@H](C)[C@@]1(O)c1ccc(Cl)cc1.Cl [Example 13, (3R,4R,5S)-1-{[(3S,4R)-1-tert-butyl-4-(2,4-difluorophenyl)pyrrolidin-3-yl]carbonyl}-4-(4-chlorophenyl)-3,5-dimethylpiperidin-4-ol hydrochloride] |  |  |
| < 10 | 3.6 | C[C@@H]1CN(C(=O)[C@@H]2CN(c3ccccn3)C[C@H]2c2ccc(F)cc2F)C[C@H](C)[C@@]1(O)c1ccccc1.Cl [Example 31, (3R,4R,5S)-1-{[(3S,4R)-4-(2,4-difluorophenyl)-1-pyridin-2-ylpyrrolidin-3-yl]carbonyl}-3,5-dimethyl-4-phenylpiperidin-4-ol hydrochloride] |  |  |
